Source: the NIST ThermoML archive (doi:10.1021/je020125e)
“And” between values parts separate entries of the source, which are not always exact repeats. Equal entries are not always repeated.

Settings: 101.33 kPa, Liquid, Hot wire method

CCCC(C)CC (stereo not given) [3-methylhexane]
Settings	thermal conductivity [W/m/K]	thermal diffusivity
256.62 K	0.1236	–
257 K	0.1233	–
257.38 K	0.1231	–
257.59 K	–	8.59e-08 m2/s
258.63 K	–	8.5e-08 m2/s
259.54 K	–	8.43e-08 m2/s
269.72 K	0.1196	–
270.11 K	0.1193	–
270.44 K	0.1191	–
270.7 K	–	8.14e-08 m2/s
271.73 K	–	8.1e-08 m2/s
272.58 K	–	8.04e-08 m2/s
284.9 K	0.115	–
285.32 K	0.1148	–
285.66 K	0.1146	–
285.92 K	–	7.81e-08 m2/s
287.01 K	–	7.78e-08 m2/s
287.89 K	–	7.72e-08 m2/s
296.55 K	0.1113	–
296.95 K	0.1113	–
297.35 K	0.111	–
297.62 K	–	7.5e-08 m2/s
298.65 K	–	7.47e-08 m2/s
299.67 K	–	7.41e-08 m2/s
311.54 K	0.1073	–
311.97 K	0.107	–
312.34 K	0.1068	–
312.6 K	–	7.22e-08 m2/s
313.66 K	–	7.08e-08 m2/s
314.6 K	–	7.07e-08 m2/s
321.52 K	0.1046	–
321.98 K	0.1042	–
322.34 K	0.104	–
322.62 K	–	7.02e-08 m2/s
323.75 K	–	6.94e-08 m2/s
324.66 K	–	6.86e-08 m2/s and 6.87e-08 m2/s
332.24 K	0.1017	–
332.69 K	0.1013	–
333.09 K	0.1011	–
333.3 K	–	6.69e-08 m2/s
334.41 K	–	6.61e-08 m2/s
335.4 K	–	6.61e-08 m2/s
343.42 K	0.09857	–
343.89 K	0.09831	–
344.28 K	0.09813	–
344.3 K	0.09807	–
344.46 K	–	6.42e-08 m2/s
345.61 K	–	6.37e-08 m2/s
346.56 K	–	6.32e-08 m2/s
346.62 K	–	6.37e-08 m2/s

CCC(C)CC [3-methylpentane]
Settings	thermal conductivity [W/m/K]	thermal diffusivity [m2/s]
256.68 K	0.1196	–
257 K	0.1195	–
257.43 K	0.1193	–
257.89 K	–	8.31e-08
258.67 K	–	8.27e-08
259.75 K	–	8.22e-08
276.71 K	0.1129	–
277.02 K	0.1128	–
277.46 K	0.1126	–
277.98 K	–	7.74e-08
278.74 K	–	7.71e-08
279.82 K	–	7.67e-08
296.39 K	0.1066	–
296.74 K	0.1065	–
297.2 K	0.1063	–
297.69 K	–	7.21e-08
298.55 K	–	7.2e-08
299.63 K	–	7.16e-08
314.22 K	0.1013	–
314.59 K	0.1012	–
315.08 K	0.101	–
315.57 K	–	6.8e-08
316.44 K	–	6.8e-08
317.58 K	–	6.75e-08
328.36 K	0.09736	–
328.75 K	0.09723	–
329.26 K	0.09705	–
329.73 K	–	6.51e-08
330.64 K	–	6.49e-08
331.82 K	–	6.44e-08
